This is an account of results in patent publication US9353094B2, “Substituted quinoxalines as kinase inhibitors” (BOARD OF REGENTS OF THE UNIVERSITY OF NEBRASKA, priority 2010, dated 2016).

The test system of experiment [1] is human breast MDA-MB-231 tumor cell line. The experiment can be described thus: Cell growth inhibition assay (alamar blue). It is filed as cell-based. The conditions noted are these: MDA-MB-231, 20 μM, 72 h. The procedure: (§1) The compounds were screened in a growth inhibition assay at 20 μM over a 72 h period in a panel of cancer cell lines (lung-A549; pancreatic-Aspc1; colon-HT29; breast-MDAMB231; prostate-PC3; ovarian-SKOV3 and bone-U2OS) and the results are summarized in Table 2. […] This size effect was also observed with the urea compounds from the secondary amine (6j vs. 6l and 6k vs. 6m).
(§2) Cell Growth Inhibition Assay. Human lung A549, human pancreatic AsPC1, human colorectal HT-29, human breast MDA-MB-231, human prostate PC3, human ovarian SKOV3, and human osteosarcoma U2OS tumor cell lines were cultured in basal media containing 10% FBS and maintained in a 37° C. incubator with 5% CO2. All compounds were screened in 96 well microtiter plate format. In general, each cell line was plated at optimal assay density in 95 μl of propagation media in 96 well plates and incubated overnight. The next day, a standard alamar blue assay was performed (see below) on representative wells of each cell line for a Tz calculation. Subsequently, cells were treated in duplicate with a 5 μl volume of either vehicle only, positive controls etoposide and taxol, or test compounds at 20 μM (highest soluble compound concentration). The treated cells were incubated for 72 h and then assayed for growth by alamar blue assay. Briefly, 10 μl of reagent was added to each well and the plates returned to 37° C. After 3 h, fluorescence at 544ex/590em was measured using a SpectraMax M5 (Molecular Devices) plate reader. Growth is represented as a percentage of the control cells that were treated with vehicle only and % growth inhibition was determined using the NCI algorithm: Tz=number of untreated cells at zero time, C=Number of control cells at 72 h time, and T=number of compound treated cells at 72 h time; 100*([T−Tz]/[C−Tz]).

Experiment [2] concerns human colorectal HT-29 tumor cell line. Put plainly: Cell growth inhibition assay (alamar blue). It counts as cell-based. The conditions noted are these: HT29, 20 μM, 72 h. How it is done: as §1, §2
For orientation: Alamar Blue is a resazurin reagent that responds to reducing activity.

Experiment [3] concerns human lung A549 tumor cell line. The experiment can be described thus: Cell growth inhibition assay (alamar blue). It is filed as cell-based. The conditions noted are these: A549, 20 μM, 72 h. How it is done:
as §1, §2

For experiment [4], the system named is human osteosarcoma U2OS tumor cell line. Put plainly: Cell growth inhibition assay (alamar blue). It counts as cell-based. The settings on record: 72 h. The procedure: as §1, §2
The test system of experiment [5] is human ovarian SKOV3 tumor cell line. Put plainly: Cell growth inhibition assay (alamar blue). It is filed as cell-based. The settings on record: SKOV3, 20 μM, 72 h. The procedure: as §1, §2
The subject of experiment [6] is human pancreatic AsPC1 tumor cell line. The experiment can be described thus: Cell growth inhibition assay (alamar blue). It is filed as cell-based. The settings on record: AsPC1, 20 μM, 72 h. The procedure: as §1, §2
Experiment [7] relates to human prostate PC3 tumor cell line. Put plainly: Cell growth inhibition assay (alamar blue). It is filed as cell-based. The settings on record: PC3, 20 μM, 72 h. The procedure:
as §1, §2

The test system of experiment [8] is panel of cancer cell lines. The experiment can be described thus: Growth inhibition assay, whole panel. It is filed as cell-based, human. The conditions noted are these: 20 μM, 72 h. The procedure: as §1, §2

Turning to `CC(=O)Nc1ccc2nc(C)c(C)nc2c1` [5a], the “% Growth inhibition at 20 μM” value in experiment [1] is 25.7 ± 5.1%; in experiment [2], 31.7 ± 2.8%; in experiment [3] it was 23.4 ± 3.3%; in experiment [4], 31.4 ± 3.6%; in experiment [5], 4.0 ± 3.6%; in experiment [6], 26.2 ± 2.8%. The “% Growth inhibition at 20 μM” value in experiment [7] came out at 21.8 ± 15.1%. Further, in experiment [8], the “growth inhibition of the various cancer cell lines (in words)” value (shortened to “growth inhibition … (in words)”) is listed as “inhibited growth”.
For the compound `CC(=O)Nc1ccc2nc(-c3ccco3)c(-c3ccco3)nc2c1` [5b], the “% Growth inhibition at 20 μM” value is 20.3 ± 5.9% in experiment [1]; 7.6 ± 5.1% in experiment [2]; 57.8 ± 7.0% in experiment [3]; “Inactive” in experiment [4]; 9.0 ± 3.4% in experiment [5]; “Inactive” in experiment [6]. Also, the “% Growth inhibition at 20 μM” value in experiment [7] was 57.7 ± 9.4%. For the same compound, the “growth inhibition … (in words)” value in experiment [8] is given as “inhibited growth”.
As for `O=C(Nc1ccccc1)Nc1ccc2nc(-c3ccco3)c(-c3ccco3)nc2c1` [5f], the “% Growth inhibition at 20 μM” value in experiment [1] is given as 31.3 ± 10.7%; in experiment [2], 52.1 ± 11.6%; in experiment [3] it was 54.6 ± 2.6%; in experiment [4], 59.6 ± 1.6%; in experiment [5], 24.7 ± 1.1%; in experiment [6] it was 9.6 ± 6.6%. For the same compound, the “% Growth inhibition at 20 μM” value in experiment [7] is reported as 70.6 ± 1.3%. In addition, in experiment [8], the “growth inhibition … (in words)” value was “inhibited growth”.
As for `S=C(Nc1ccccc1)Nc1ccc2nc(-c3ccco3)c(-c3ccco3)nc2c1` [6a], the “% Growth inhibition at 20 μM” value in experiment [1] is on record as 19.1 ± 12.5%; in experiment [2], 26.1 ± 15.0%; in experiment [3], 18.0 ± 0.1%; in experiment [4], 21.4 ± 8.4%; in experiment [5] it was “Inactive”; in experiment [6], “Inactive”. The “% Growth inhibition at 20 μM” value in experiment [7] stood at 56.8 ± 1.4%. Besides, in experiment [8], the “growth inhibition … (in words)” value was “active”.
Consider `O=[N+]([O-])c1ccc(NC(=S)Nc2ccc3nc(-c4ccco4)c(-c4ccco4)nc3c2)cc1` [6d], for which the “% Growth inhibition at 20 μM” value in experiment [1] is reported as 9.0 ± 4.7%; in experiment [2], 42.0 ± 1.9%; in experiment [3], 19.2 ± 8.9%; in experiment [4], 32.2 ± 0.1%; in experiment [5], “Inactive”; in experiment [6], “Inactive”. Further, the “% Growth inhibition at 20 μM” value in experiment [7] was determined as 43.4 ± 9.3%. Moreover, the “growth inhibition … (in words)” value in experiment [8] is “active”.
For the compound `O=C(Nc1ccc2nc(-c3ccco3)c(-c3ccco3)nc2c1)N1CCCC1` [6h], the “% Growth inhibition at 20 μM” value was found to be 18.2 ± 7.0% in experiment [1]; 16.7 ± 3.7% in experiment [2]; 23.3 ± 2.9% in experiment [3]; 46.5 ± 4.4% in experiment [4]; 16.9 ± 4.9% in experiment [5]; 11.6 ± 4.2% in experiment [6]. Moreover, in experiment [7], the “% Growth inhibition at 20 μM” value was 53.1 ± 9.9%. Further, the “growth inhibition … (in words)” value in experiment [8] is “active”.
Consider `O=C(Nc1ccc2nc(-c3ccco3)c(-c3ccco3)nc2c1)N1CCC(Cc2ccccc2)CC1` [6k], for which the “% Growth inhibition at 20 μM” value in experiment [1] is given as 90.8 ± 4.5%; in experiment [2] it was 55.2 ± 4.1%; in experiment [3] it was 93.1 ± 7.8%; in experiment [4], 80.3 ± 2.4%; in experiment [5], 47.6 ± 2.5%; in experiment [6], >100%. Further, the “% Growth inhibition at 20 μM” value in experiment [7] was >100%. Further, the “growth inhibition … (in words)” value in experiment [8] is given as “active”.
As for `O=C(Nc1ccc2nc(-c3ccco3)c(-c3ccco3)nc2c1)N1CCOCC1` [6m], the “% Growth inhibition at 20 μM” value in experiment [1] is recorded as 10.9 ± 5.0%; in experiment [2], 19.4 ± 3.6%; in experiment [3] it was 39.7 ± 12.8%; in experiment [4], “Inactive”; in experiment [5] it was “Inactive”; in experiment [6], “Inactive”. In experiment [7], the “% Growth inhibition at 20 μM” value is reported as 48.9 ± 7.5%. Further, the “growth inhibition … (in words)” value in experiment [8] is reported as “active”.
Regarding `O=C(Nc1ccc(-c2ccccc2)cc1)Nc1ccc2nc(-c3ccco3)c(-c3ccco3)nc2c1` [7d], the “% Growth inhibition at 20 μM” value in experiment [1] was 50.2 ± 8.9%; in experiment [2] it was 72.4 ± 7.6%; in experiment [3], 13.8 ± 9.8%; in experiment [4] it was 46.9 ± 7.4%; in experiment [5], “Inactive”; in experiment [6], “Inactive”. For the same compound, in experiment [7], the “% Growth inhibition at 20 μM” value came out at 88.5 ± 1.9%.
